According to a melting point compilation (Tetko et al.):

Compound `CC(NC(=O)CCn1cncn1)C(=O)O` (stereo unspecified) has a melting point of 254 to 256 °C. In the case of `CS(=O)(=O)c1ccc(N)c(C(=O)O)c1`, the melting point is reported as 239 to 241 °C. Compound `O=C(O)Cc1coc2ccc3ccccc3c12` has a melting point of 166 to 168 °C. Compound `O=C(COc1ccccc1)Nc1cc(Cl)ccc1C(=O)O` has a melting point of 247 to 249 °C. In the case of `O=C1Nc2c(I)cccc2C1=O`, the melting point is reported as 200 to 202 °C. In the case of `O=C(CCl)Nc1cc(C(F)(F)F)ccc1Cl`, the melting point is reported as 71 to 73 °C. Work on `CN1CCN(c2ccc(N)c(C(F)(F)F)c2)CC1` yielded a melting point of 87 to 89 °C. Compound `NC(=O)c1cnn2c(C(=O)O)ccnc12` has a melting point of 199 to 201 °C. `CC(C)(C)c1nn(-c2ccccc2)c(Cl)c1C=O` gave a melting point of 34 to 36 °C. `Cc1nc2nc(C(F)(F)F)nn2c(C)c1CCC(=O)O` showed a melting point of 123 to 125 °C. In the case of `O=[N+]([O-])c1cccc(C(F)F)c1Br`, the melting point is reported as 29 to 31 °C. Work on `O=C(O)C1(O)CCN(Cc2ccccc2)C1` (stereo unspecified) yielded a melting point of 173 to 175 °C. `COc1ccccc1CC(C)=CC(=O)O` gave a melting point of 96 to 98 °C. `O/N=C(/Cc1nc2ccccc2[nH]1)c1cccs1` gave a melting point of 207 to 209 °C. In the case of `O=C(O)CSc1nnnn1CC(F)(F)F`, the melting point is reported as 135 to 137 °C. With `CC1CC(C)CN(S(=O)(=O)c2cccc(C(=O)O)c2)C1` (stereo unspecified) the melting point was 217 to 219 °C. `O=Cc1cnc(N2CCOCC2)nc1` showed a melting point of 147 to 149 °C. For `O=Cc1ccc(OCC(=O)c2ccccc2)cc1`, the melting point was 115 to 119 °C. With `NNc1ncc(Cl)cc1Cl` the melting point was 179 to 181 °C. `CCC(CC)C(O)CN` (stereo unspecified) showed a melting point of 39 to 41 °C. `Cc1ccc(-c2nc(N)sc2CN(C)C)cc1` showed a melting point of 175 to 177 °C. `NC(=NO)c1cnccn1` showed a melting point of 182 to 184 °C. In the case of `CC(Br)C(=O)c1ccc(Oc2ccccc2)cc1` (stereo unspecified), the melting point is reported as 86 to 88 °C. In the case of `NC(=O)Cc1cccc(O)c1`, the melting point is reported as 114 to 116 °C. In the case of `CCOC(=O)Nc1nnc(S)s1`, the melting point is reported as 205 to 207 °C. With `CNc1ccc([N+](=O)[O-])c2nonc12` the melting point was 257 to 259 °C. Compound `N#CNC1=NCCCCC1` has a melting point of 79 to 81 °C. Compound `CC(C#N)CSc1ccccc1N` (stereo unspecified) has a melting point of 65 to 67 °C. Work on `Cc1sc2ncn(N)c(=O)c2c1C` yielded a melting point of 131 to 133 °C. Work on `COCCNC(=O)C(C)Cl` (stereo unspecified) yielded a melting point of 28 to 30 °C. In the case of `CC(=O)c1nnn(-c2ccc(C)cc2)c1C`, the melting point is reported as 111 to 113 °C. `O=C(O)/C=C/c1ccc(OCc2cn3ccccc3n2)cc1` showed a melting point of 190 to 192 °C. For `CC(C)(Oc1ccc(F)cc1)C(=O)O`, the melting point was 68 to 70 °C. `Cc1cc(N)nn1-c1ccc(F)cc1` gave a melting point of 70 to 72 °C. `O=C(O)CCN1CCSC1=O` showed a melting point of 91 to 93 °C. `O=C(O)CC1Sc2ccc(Cl)cc2NC1=O` (stereo unspecified) gave a melting point of 240 to 242 °C. `c1ccc(Nc2nc3ccccc3s2)cc1` showed a melting point of 139 to 141 °C. For `O=C(O)Cc1csc(-c2cccc(C(F)(F)F)c2)n1`, the melting point was 109 to 111 °C. In the case of `O=c1[nH]c(-c2ccncc2)cs1`, the melting point is reported as 303 to 305 °C. With `Cc1sc2nc(-c3cccs3)nc(Cl)c2c1C` the melting point was 130 to 137 °C. With `COC(=O)C1CC(OC)=CC1=O` (stereo unspecified) the melting point was 47 to 49 °C. Compound `O=C(O)c1ccc2c(c1)C(=O)N(Cc1ccco1)C2=O` has a melting point of 172 to 176 °C. Compound `Nc1ccccc1CN1CCc2ccccc21` has a melting point of 75 to 77 °C. `O=C(O)Cc1ccn(-c2ccc(F)cc2)n1` gave a melting point of 97 to 99 °C. Compound `CC(Cl)C(=O)Nc1ccc2c(c1)OCO2` (stereo unspecified) has a melting point of 168 to 170 °C. `O=C(O)CNC(=O)c1ccc(F)cc1F` gave a melting point of 139 to 141 °C. In the case of `Cc1c(C=O)c2ccccn2c1C#N`, the melting point is reported as 170 to 172 °C. Work on `NNC(=O)Cn1ccc(C(F)(F)F)n1` yielded a melting point of 157 to 159 °C. In the case of `CC(C)(C)c1noc2ncc(C(=O)O)cc12`, the melting point is reported as 207 to 209 °C. With `Cc1oc(C(=O)O)cc1S(=O)(=O)N(C)C` the melting point was 151 to 153 °C. For `Cn1ccnc1C(O)(CC(=O)O)C(F)(F)F` (stereo unspecified), the melting point was 186 to 188 °C. With `Nc1c(F)ccc(Cl)c1C(=O)O` the melting point was 161 to 163 °C. `CC(C)(C)OC(=O)C(C#N)c1ccc([N+](=O)[O-])cn1` (stereo unspecified) showed a melting point of 168 to 170 °C. `Cc1cc(C)cc(C(=O)CC#N)c1` showed a melting point of 140 to 142 °C. For `Cc1ccc(C(C)C)c(Oc2ccc(C=O)cc2[N+](=O)[O-])c1`, the melting point was 109 to 111 °C. `Nc1ccc(S(=O)(=O)NC2CN3CCC2CC3)cc1` (stereo unspecified) gave a melting point of 168 to 170 °C.
